Experimental data as given in patent publication US7939509B2, “Partial and full agonists of A1 adenosine receptors” (Gilead Sciences, Inc., priority 2002, dated 2011).

Columns and labels:
[1] = test system: awake rats; assay: Anti-lipolytic effect: serum free fatty acids (FFA) in overnight-fasted awake rats; type: in vivo, rat
Method: All experimental procedures were performed under a protocol approved by the Institutional Animal Care and Use Committee of CV Therapeutics, Inc., and in accordance with the recommendations set forth in the Guide for the Care and Use of Laboratory Animals published by the National Research Council. Male Sprague-Dawley rats (225-250 gm) with either one or two indwelling catheters (carotid and jugular) were purchased from Charles River Laboratories (Wilmington, Mass.). Animals were housed 1 per cage in a room maintained on a 12 h light/dark cycle (light on 06.00-18.00 h) under constant temperature (22-25° C.) and with ad libitum access to food and water. The anti-lipolytic effects of Compound A were studied in awake rats. Animals were fasted overnight before experimental use. On the day of the experiment, animals were put in metabolic cages and left undisturbed to acclimate to the environment for 1-2 hrs. An infusion set (21 G×¾″, 0.8×19 mm U.T.W., 3½″, 9 cm tubing, volume 0.15 ml) was connected to the arterial catheter for blood sampling. A 1% sodium citrate saline solution was used to flush the lines. A pre-treatment blood sample was obtained from each animal to determine baseline values for FFA and TG. Compound A was given via oral gavage, sc injection, iv injection, or iv infusion, as described, for each different series of experiments. Blood samples were collected into serum separator tubes (Becton Dickinson, Franklin Lakes, N.J.) at pre-determined times, Blood was allowed to clot, and then centrifuged at 8000 rpm for 4 min at 4° C. The serum was stored at −80° C. and was thawed at 4° C. for determinations of FFA and TG contents. […] Sodium citrate and Triton WR1339 were purchased from Sigma (St. Louis, Mo.). Nicotinic acid and PEG 400 were purchased from VWR (by EMD Chemicals). Triton WR 1339 was diluted in warm saline (˜37° C.) with frequent vortexing. […] Compound A was dissolved in PEG 400, and then diluted with distilled water to make a 20% PEG drug solution. Serum FFA and TGs were measured using commercial kits from Wako Chemicals, Richmond, Va. Glucose and Insulin were measured using commercial kits from Wako Chemicals USA (Richmond, Va.). All data are reported as mean±SEM. Statistical analysis of data from experiments with 2 treatment groups was performed using the unpaired Student's t-test. Two way analysis of variance followed by Bonferroni's test was used for multiple comparisons.

[2] = test system: rats fed high fat diet; assay: Chronic 2 week treatment: fasting glucose, insulin, FFA, TG in high fat diet rats; type: in vivo, rat; conditions: 5 mg/kg SC for 2 weeks, HF rats
Method: Animals were fasted overnight before taking samples. Compound A was given via SC injection for 2 weeks at a dose of 5 mg/kg. Data is presented as mean±SEM from number of animals indicated below each bar. […] Male Sprague-Dawley rats (225-250 gm) with either one or two indwelling catheters (carotid and jugular) were obtained from Charles River Laboratories (Wilmington, Mass.). Animals were housed 1 per cage in a room maintained on a 12 h light/dark cycle (light on 06.00-18.00 h) under constant temperature (22-25° C.) and with ad libitum access to food and water. Rats on normal diet (Chow) were fed standard laboratory chow (12% fat, 60% carbohydrate, and 28% protein) throughout the study, while animals in the high fat (HF) diet group were given a diet (TD88137 from Harlan Teklad, Madison, Wis.) containing 42% fat, 43% carbohydrate, and 15% protein. The anti-lipolytic effects of Compound A (see chemical name below) were studied in awake rats. On the day of the experiment, animals were put in metabolic cages and left undisturbed to acclimate to the environment for 1-2 hrs. An infusion set (21 G×¾″, 0.8×19 mm U.T.W., 3½″, 9 cm tubing, volume 0.15 ml) was connected to the arterial catheter for blood sampling. A 1% sodium citrate saline solution was used to flush the lines. A pre-treatment blood sample was obtained from each animal to determine baseline values for glucose, insulin, FFA and TG. Blood samples were collected into plasma and serum separator tubes (Becton Dickinson, Franklin Lakes, N.J.) at pre-determined time points. […] For chronic experiments Compound A was administered twice a day via subcutaneous injection at a dose of 5 mg/kg for 2 weeks. […] Statistical analysis of data from experiments with 2 treatment groups was performed using the unpaired Student's t-test. One way analysis of variance (ANOVA) followed by Newman-Keuls posthoc analysis was used for multiple comparisons. […] Differences between/among treatment groups were considered to be significant when the probability of their occurrence by chance alone was <0.05.

O[C@@H]1[C@H](O)[C@@H](CSc2ccccc2F)O[C@H]1n1cnc2c(N[C@@H]3CCC[C@H]3O)ncnc21 [Compound A, 2-{6-[((1R,2R)-2-hydroxycyclopentyl)amino]purin-9-yl}(4S,5S,2R,3R)-5-[(2-fluorophenylthio)methyl]oxolane-3,4-diol]
maximal decrease in FFA levels ([1]; 1 mg/kg iv bolus): 54±5%
FFA level after treatment ([1]; 1 mg/kg iv bolus, from 0.79±0.04 mM, p<0.001): 0.36 ± 0.05 mM
FFA level after first iv injection ([1]; 1 mg/kg iv, first of three repeated injections, baseline 0.88±0.02 mM): 0.35 ± 0.04 mM
FFA level after second iv injection ([1]; 1 mg/kg iv, second of three repeated injections, baseline 0.88±0.02 mM): 0.35 ± 0.03 mM
FFA level after third iv injection ([1]; 1 mg/kg iv, third of three repeated injections, baseline 0.88±0.02 mM): 0.38 ± 0.03 mM
decrease in FFA below baseline ([1]; 2.5 mg/kg oral gavage): 31%
FFA level after treatment ([1]; 2.5 mg/kg oral gavage, from baseline 0.7±0.05 mM, p<0.05): 0.5 ± 0.03 mM
decrease in FFA levels ([1]; 5 mg/kg oral gavage): 47%
FFA level after treatment ([1]; 5 mg/kg oral gavage, from 0.8±0.04 mM, p<0.01): 0.4 ± 0.03 mM
decrease in FFA levels ([1]; 10 mg/kg oral gavage): 57%
FFA level after treatment ([1]; 10 mg/kg oral gavage, from 0.68±0.04 mM, p<0.001): 0.29 ± 0.02 mM
duration of the effect to suppress lipolysis ([1]; 2.5, 5, 10 mg/kg oral gavage): dose-dependent
lowering of FFA levels, dose dependence ([1]; 2.5, 5, 10 mg/kg oral gavage): dose-dependent manner
rebound increase of FFA levels ([1]; after iv bolus): not observed
acute tachyphylaxis of the FFA lowering effect ([1]; three repeated iv injections, 1 mg/kg): did not undergo acute tachyphylaxis
fasting FFA concentration vs placebo [2]: significantly lower
fasting TG concentration vs placebo [2]: significantly lower
fasting glucose concentration vs placebo [2]: no significant differences
fasting insulin concentration vs placebo [2]: significantly lower
